# Measured values taken from US20040266623A1, “SYNERGISTIC QUINCLORAC HERBICIDAL COMPOSITIONS” (priority 2003, published 2004).
# Key:
# Assay in all cases: Greenhouse pot test, postemergent spray, visual control rating converted to percent control
# Format in all cases: in vivo
# dandelion = system: dandelion
# In short: (§1)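 Plants were rated visually at 24 HAT through 21 DAT on a 1 (none) to 9 (death) scale, later expressed as percent control. Treatment was a postemergent greenhouse pot spray delivering 43.46 gallons/acre onto plants in soilless media. Two- and three-way mixtures were judged for synergy against Colby-expected values.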
# plantain = system: plantain
# In short: as §1
# white clover = system: white clover
# In short: as §1
smiles,measurement,setting,value
"O=C(O)c1c(Cl)ccc2cc(Cl)cnc12 [Quinclorac, 3,7-dichloro-8-quinolinecarboxylic acid]",% Control Dandelion,"dandelion; Test 1, 7 DAT, 0.18 lbs/A",33.3%
same,Control (1-9) Dandelion,"dandelion; Test 1, 7 DAT, 0.18 lbs/A",3
same,% Control Dandelion,"dandelion; Test 1, 7 DAT, 0.375 lbs/A",33.3%
same,Control (1-9) Dandelion,"dandelion; Test 1, 7 DAT, 0.375 lbs/A",3
same,% Control Dandelion,"dandelion; Test 1, 7 DAT, 0.75 lbs/A",33.3%
same,Control (1-9) Dandelion,"dandelion; Test 1, 7 DAT, 0.75 lbs/A",3
same,% Control Dandelion,"dandelion; Test 1, 14 DAT, 0.18 lbs/A",88.9%
same,Control (1-9) Dandelion,"dandelion; Test 1, 14 DAT, 0.18 lbs/A",8
same,% Control Dandelion,"dandelion; Test 1, 14 DAT, 0.375 lbs/A",77.8%
same,Control (1-9) Dandelion,"dandelion; Test 1, 14 DAT, 0.375 lbs/A",7
same,% Control Dandelion,"dandelion; Test 1, 14 DAT, 0.75 lbs/A",66.7%
same,Control (1-9) Dandelion,"dandelion; Test 1, 14 DAT, 0.75 lbs/A",6
same,% Control Dandelion,"dandelion; Test 1, 24 HAT, 0.18 lbs/A",22.2%
same,Control (1-9) Dandelion,"dandelion; Test 1, 24 HAT, 0.18 lbs/A",2
same,% Control Dandelion,"dandelion; Test 1, 24 HAT, 0.375 lbs/A",11.1%
same,Control (1-9) Dandelion,"dandelion; Test 1, 24 HAT, 0.375 lbs/A",1
same,% Control Dandelion,"dandelion; Test 1, 24 HAT, 0.75 lbs/A",11.1%
same,Control (1-9) Dandelion,"dandelion; Test 1, 24 HAT, 0.75 lbs/A",1
same,% Control Dandelion,"dandelion; Test 1, 48 HAT, 0.18 lbs/A",33.3%
same,Control (1-9) Dandelion,"dandelion; Test 1, 48 HAT, 0.18 lbs/A",3
same,% Control Dandelion,"dandelion; Test 1, 48 HAT, 0.375 lbs/A",33.3%
same,Control (1-9) Dandelion,"dandelion; Test 1, 48 HAT, 0.375 lbs/A",3
same,% Control Dandelion,"dandelion; Test 1, 48 HAT, 0.75 lbs/A",33.3%
same,Control (1-9) Dandelion,"dandelion; Test 1, 48 HAT, 0.75 lbs/A",3
same,% Control Dandelion,"dandelion; Test 2, 7 DAT, 0.18 lbs/A",88.9%
same,Control (1-9) Dandelion,"dandelion; Test 2, 7 DAT, 0.18 lbs/A",8
same,% Control Dandelion,"dandelion; Test 2, 7 DAT, 0.375 lbs/A",33.3%
same,Control (1-9) Dandelion,"dandelion; Test 2, 7 DAT, 0.375 lbs/A",3
same,% Control Dandelion,"dandelion; Test 2, 7 DAT, 0.75 lbs/A",33.3%
same,Control (1-9) Dandelion,"dandelion; Test 2, 7 DAT, 0.75 lbs/A",3
same,% Control Dandelion,"dandelion; Test 2, 14 DAT, 0.18 lbs/A",88.9%
same,Control (1-9) Dandelion,"dandelion; Test 2, 14 DAT, 0.18 lbs/A",8
same,% Control Dandelion,"dandelion; Test 2, 14 DAT, 0.375 lbs/A",88.9%
same,Control (1-9) Dandelion,"dandelion; Test 2, 14 DAT, 0.375 lbs/A",8
same,% Control Dandelion,"dandelion; Test 2, 14 DAT, 0.75 lbs/A",66.7%
same,Control (1-9) Dandelion,"dandelion; Test 2, 14 DAT, 0.75 lbs/A",6
same,% Control Dandelion,"dandelion; Test 2, 24 HAT, 0.18 lbs/A",22.2%
same,Control (1-9) Dandelion,"dandelion; Test 2, 24 HAT, 0.18 lbs/A",2
same,% Control Dandelion,"dandelion; Test 2, 24 HAT, 0.375 lbs/A",22.2%
same,Control (1-9) Dandelion,"dandelion; Test 2, 24 HAT, 0.375 lbs/A",2
same,% Control Dandelion,"dandelion; Test 2, 24 HAT, 0.75 lbs/A",22.2%
same,Control (1-9) Dandelion,"dandelion; Test 2, 24 HAT, 0.75 lbs/A",2
same,% Control Dandelion,"dandelion; Test 2, 72 HAT, 0.18 lbs/A",55.6%
same,Control (1-9) Dandelion,"dandelion; Test 2, 72 HAT, 0.18 lbs/A",5
same,% Control Dandelion,"dandelion; Test 2, 72 HAT, 0.375 lbs/A",33.3%
same,Control (1-9) Dandelion,"dandelion; Test 2, 72 HAT, 0.375 lbs/A",3
same,% Control Dandelion,"dandelion; Test 2, 72 HAT, 0.75 lbs/A",33.3%
same,Control (1-9) Dandelion,"dandelion; Test 2, 72 HAT, 0.75 lbs/A",3
same,% Control Dandelion,"dandelion; Test 4, 7 DAT, 0.18 lbs/A",22.2%
same,Control (1-9) Dandelion,"dandelion; Test 4, 7 DAT, 0.18 lbs/A",2
same,% Control Dandelion,"dandelion; Test 4, 7 DAT, 0.375 lbs/A",22.2%
same,Control (1-9) Dandelion,"dandelion; Test 4, 7 DAT, 0.375 lbs/A",2
same,% Control Dandelion,"dandelion; Test 4, 7 DAT, 0.75 lbs/A",22.2%
same,Control (1-9) Dandelion,"dandelion; Test 4, 7 DAT, 0.75 lbs/A",2
same,% Control Dandelion,"dandelion; Test 4, 14 DAT, 0.18 lbs/A",22.2%
same,Control (1-9) Dandelion,"dandelion; Test 4, 14 DAT, 0.18 lbs/A",2
same,% Control Dandelion,"dandelion; Test 4, 14 DAT, 0.375 lbs/A",22.2%
same,Control (1-9) Dandelion,"dandelion; Test 4, 14 DAT, 0.375 lbs/A",2
same,% Control Dandelion,"dandelion; Test 4, 14 DAT, 0.75 lbs/A",22.2%
same,Control (1-9) Dandelion,"dandelion; Test 4, 14 DAT, 0.75 lbs/A",2
same,% Control Plantain,"plantain; Test 4, 7 DAT, 0.18 lbs/A",33.3%
same,Control (1-9) Plantain,"plantain; Test 4, 7 DAT, 0.18 lbs/A",3
same,% Control Plantain,"plantain; Test 4, 7 DAT, 0.375 lbs/A",22.2%
same,Control (1-9) Plantain,"plantain; Test 4, 7 DAT, 0.375 lbs/A",2
same,% Control Plantain,"plantain; Test 4, 7 DAT, 0.75 lbs/A",33.3%
same,Control (1-9) Plantain,"plantain; Test 4, 7 DAT, 0.75 lbs/A",3
same,% Control Plantain,"plantain; Test 4, 14 DAT, 0.18 lbs/A",33.3%
same,Control (1-9) Plantain,"plantain; Test 4, 14 DAT, 0.18 lbs/A",3
same,% Control Plantain,"plantain; Test 4, 14 DAT, 0.375 lbs/A",22.2%
same,Control (1-9) Plantain,"plantain; Test 4, 14 DAT, 0.375 lbs/A",2
same,% Control Plantain,"plantain; Test 4, 14 DAT, 0.75 lbs/A",33.3%
same,Control (1-9) Plantain,"plantain; Test 4, 14 DAT, 0.75 lbs/A",3
same,% Control Clover,"white clover; Test 1, 7 DAT, 0.18 lbs/A",33.3%
same,Control (1-9) Clover,"white clover; Test 1, 7 DAT, 0.18 lbs/A",3
same,% Control Clover,"white clover; Test 1, 7 DAT, 0.375 lbs/A",33.3%
same,Control (1-9) Clover,"white clover; Test 1, 7 DAT, 0.375 lbs/A",3
same,% Control Clover,"white clover; Test 1, 7 DAT, 0.75 lbs/A",33.3%
same,Control (1-9) Clover,"white clover; Test 1, 7 DAT, 0.75 lbs/A",3
same,% Control Clover,"white clover; Test 1, 14 DAT, 0.18 lbs/A",100.0%
same,Control (1-9) Clover,"white clover; Test 1, 14 DAT, 0.18 lbs/A",9
same,% Control Clover,"white clover; Test 1, 14 DAT, 0.375 lbs/A",100.0%
same,Control (1-9) Clover,"white clover; Test 1, 14 DAT, 0.375 lbs/A",9
same,% Control Clover,"white clover; Test 1, 14 DAT, 0.75 lbs/A",88.9%
same,Control (1-9) Clover,"white clover; Test 1, 14 DAT, 0.75 lbs/A",8
same,% Control Clover,"white clover; Test 1, 24 HAT, 0.18 lbs/A",11.1%
same,Control (1-9) Clover,"white clover; Test 1, 24 HAT, 0.18 lbs/A",1
same,% Control Clover,"white clover; Test 1, 24 HAT, 0.375 lbs/A",11.1%
same,Control (1-9) Clover,"white clover; Test 1, 24 HAT, 0.375 lbs/A",1
same,% Control Clover,"white clover; Test 1, 24 HAT, 0.75 lbs/A",11.1%
same,Control (1-9) Clover,"white clover; Test 1, 24 HAT, 0.75 lbs/A",1
same,% Control Clover,"white clover; Test 1, 48 HAT, 0.18 lbs/A",22.2%
same,Control (1-9) Clover,"white clover; Test 1, 48 HAT, 0.18 lbs/A",2
same,% Control Clover,"white clover; Test 1, 48 HAT, 0.375 lbs/A",33.3%
same,Control (1-9) Clover,"white clover; Test 1, 48 HAT, 0.375 lbs/A",3
same,% Control Clover,"white clover; Test 1, 48 HAT, 0.75 lbs/A",33.3%
same,Control (1-9) Clover,"white clover; Test 1, 48 HAT, 0.75 lbs/A",3
same,% Control Clover,"white clover; Test 2, 7 DAT, 0.18 lbs/A",66.7%
same,Control (1-9) Clover,"white clover; Test 2, 7 DAT, 0.18 lbs/A",6
same,% Control Clover,"white clover; Test 2, 7 DAT, 0.375 lbs/A",77.8%
same,Control (1-9) Clover,"white clover; Test 2, 7 DAT, 0.375 lbs/A",7
same,% Control Clover,"white clover; Test 2, 7 DAT, 0.75 lbs/A",77.8%
same,Control (1-9) Clover,"white clover; Test 2, 7 DAT, 0.75 lbs/A",7
same,% Control Clover,"white clover; Test 2, 14 DAT, 0.18 lbs/A",100.0%
same,Control (1-9) Clover,"white clover; Test 2, 14 DAT, 0.18 lbs/A",9
same,% Control Clover,"white clover; Test 2, 14 DAT, 0.375 lbs/A",100.0%
same,Control (1-9) Clover,"white clover; Test 2, 14 DAT, 0.375 lbs/A",9
same,% Control Clover,"white clover; Test 2, 14 DAT, 0.75 lbs/A",100.0%
same,Control (1-9) Clover,"white clover; Test 2, 14 DAT, 0.75 lbs/A",9
same,% Control Clover,"white clover; Test 2, 24 HAT, 0.18 lbs/A",22.2%
same,Control (1-9) Clover,"white clover; Test 2, 24 HAT, 0.18 lbs/A",2
same,% Control Clover,"white clover; Test 2, 24 HAT, 0.375 lbs/A",22.2%
same,Control (1-9) Clover,"white clover; Test 2, 24 HAT, 0.375 lbs/A",2
same,% Control Clover,"white clover; Test 2, 24 HAT, 0.75 lbs/A",22.2%
same,Control (1-9) Clover,"white clover; Test 2, 24 HAT, 0.75 lbs/A",2
same,% Control Clover,"white clover; Test 2, 72 HAT, 0.18 lbs/A",33.3%
same,Control (1-9) Clover,"white clover; Test 2, 72 HAT, 0.18 lbs/A",3
same,% Control Clover,"white clover; Test 2, 72 HAT, 0.375 lbs/A",33.3%
same,Control (1-9) Clover,"white clover; Test 2, 72 HAT, 0.375 lbs/A",3
same,% Control Clover,"white clover; Test 2, 72 HAT, 0.75 lbs/A",33.3%
same,Control (1-9) Clover,"white clover; Test 2, 72 HAT, 0.75 lbs/A",3
same,% Control Clover,"white clover; Test 4, 7 DAT, 0.18 lbs/A",33.3%
same,Control (1-9) Clover,"white clover; Test 4, 7 DAT, 0.18 lbs/A",3
same,% Control Clover,"white clover; Test 4, 7 DAT, 0.375 lbs/A",44.4%
same,Control (1-9) Clover,"white clover; Test 4, 7 DAT, 0.375 lbs/A",4
same,% Control Clover,"white clover; Test 4, 7 DAT, 0.75 lbs/A",33.3%
same,Control (1-9) Clover,"white clover; Test 4, 7 DAT, 0.75 lbs/A",3
same,% Control Clover,"white clover; Test 4, 14 DAT, 0.18 lbs/A",33.3%
same,Control (1-9) Clover,"white clover; Test 4, 14 DAT, 0.18 lbs/A",3
same,% Control Clover,"white clover; Test 4, 14 DAT, 0.375 lbs/A",55.6%
same,Control (1-9) Clover,"white clover; Test 4, 14 DAT, 0.375 lbs/A",5
same,% Control Clover,"white clover; Test 4, 14 DAT, 0.75 lbs/A",44.4%
same,Control (1-9) Clover,"white clover; Test 4, 14 DAT, 0.75 lbs/A",4
